# Laboratory results reported in patent US20260092083A1, “VANCOMYCIN DERIVATIVES WITH SIDEROPHORE MODIFICATION AS NOVEL REPURPOSED ANTIBIOTICS TO COMBAT GRAM-NEGATIVE BACTERIAL INFECTION” (priority 2023, published 2026).
# What was measured:
# Assay type in all cases: cell-based
# [1] = system: E. coli (wild-type) BW25113; assay: Broth microdilution MIC, E. coli wild-type; details: Escherichia coli, iron-depleted CAMHB, OD600 ≤0.15, read-out: MIC (μg/mL) Gram-negative EC
# Method: (§1) The test compounds including vancomycin hydrochloride were supplied as a 6.4 mg/mL solution in 100% dimethyl sulfoxide (DMSO) aliquoted into individual wells of a 96-well plate (50 μL per well). […] Standardized inocula were added to the MIC test plates, which were incubated for the prescribed times at 35° C. The N. gonorrhoeae strain was incubated in an atmosphere containing 5% CO2.
# (§2) The final optical density of each well at 600 nm was measured using a Tecan Spark plate reader. The compound concentration versus OD600 data were then curve fit using custom software. An MIC value was defined as the lowest compound concentration that led to an OD600 value≤0.15 for the E. coli, K. pneumoniae, P. aeruginosa, A. baumannii, or S. aureus strains. For the N. gonorrhoeae strain, an OD600 value≤0.19 was used as a cutoff to define an MIC value; this higher cut-off value was required because the N. gonorrhoeae MIC plates were covered with plastic seals that increased the background OD600 value.
# (§3) JMI Laboratories followed current CLSI quality assurance practices when performing the susceptibility tests. MIC values were validated by concurrently testing the CLSI-recommended ATCC QC reference strains S. aureus ATCC 29213 and K. pneumoniae ATCC 700603. The inoculum density during susceptibility testing was monitored by bacterial colony counts. Where applicable, QC ranges for tested reference strains were those ranges approved or published by CLSI for testing in CAMHB. […] Importantly, the CLSI reference method for testing N. gonorrhoeae is the agar dilution MIC method, which was not used here. Thus, CLSI MIC QC ranges for N. gonorrhoeae could not be applied to the antimicrobials studied here.
# (§4) Abbreviations: EC, E. coli (wild-type) BW25113; EC efflux^−, E. coli (tolC) JW5503-1; KPN, K. pneumoniae ATCC 700603; PSA, P. aeruginosa PAO1; PSA efflux^−, P. aeruginosa (multi-pump-gene mutant) PAM1626; ACB, A. baumannii JMI #1186154; GC, N. gonorrhoeae WHO-Z; SA, S. aureus ATCC 29213. Broth microdilution MIC values were measured in iron-depleted CAMHB for all strains except for GC, which was tested in fastidious broth.
# [2] = system: E. coli (tolC) JW5503-1; assay: Broth microdilution MIC, E. coli efflux-deficient (tolC); details: Escherichia coli, read-out: MIC (μg/mL) Gram-negative EC Efflux
# Method: as §1, §2, §3, §4
# [3] = system: K. pneumoniae ATCC 700603; assay: Broth microdilution MIC, K. pneumoniae; details: Klebsiella pneumoniae, ATCC700603, read-out: MIC (μg/mL) Gram-negative KPN
# Method: as §1, §2, §3, §4
# [4] = system: P. aeruginosa PAO1; assay: Broth microdilution MIC, P. aeruginosa; details: Pseudomonas aeruginosa, iron-depleted CAMHB, OD600 ≤0.15, read-out: MIC (μg/mL) Gram-negative PSA
# Method: as §1, §2, §3, §4
# [5] = system: P. aeruginosa (multi-pump-gene mutant) PAM1626; assay: Broth microdilution MIC, P. aeruginosa efflux-deficient; details: Pseudomonas aeruginosa, read-out: MIC (μg/mL) Gram-negative PSA Efflux
# Method: as §1, §2, §3, §4
# [6] = system: A. baumannii JMI #1186154; assay: Broth microdilution MIC, A. baumannii; details: Acinetobacter baumannii, iron-depleted CAMHB, OD600 ≤0.15, read-out: MIC (μg/mL) Gram-negative ACB
# Method: as §1, §2, §3, §4
# [7] = system: N. gonorrhoeae WHO-Z; assay: Broth microdilution MIC, N. gonorrhoeae; details: Neisseria gonorrhoeae, read-out: MIC (μg/mL) Gram-negative GC
# Method: as §1, §2, §3, §4
# [8] = system: S. aureus ATCC 29213; assay: Broth microdilution MIC, S. aureus; details: Staphylococcus aureus, ATCC29213, iron-depleted CAMHB, OD600 ≤0.15, read-out: MIC (μg/mL) Gram positive SA
# Method: as §1, §2, §3, §4
SMILES,MIC [1] [µg/mL],MIC [2] [µg/mL],MIC [3] [µg/mL],MIC [4] [µg/mL],MIC [5] [µg/mL],MIC [6] [µg/mL],MIC [7] [µg/mL],MIC [8] [µg/mL]
CNC(CC(C)C)C(=O)NC1C(=O)NC(CC(N)=O)C(=O)NC2C(=O)NC3C(=O)NC(C(=O)N[C@H](C(=O)O)c4cc(O)c(CNCc5cn(CCCNC(=O)c6ccc(O)c(O)c6Cl)nn5)c(O)c4-c4cc3ccc4O)C(O)c3ccc(c(Cl)c3)Oc3cc2cc(c3OC2OC(CO)C(O)C(O)C2OC2CC(C)(N)C(O)C(C)O2)Oc2ccc(cc2Cl)C1O (stereo partly shown) [Compound 27],16,64,> 64,> 64,> 64,16,> 64,8
CNC(CC(C)C)C(=O)NC1C(=O)NC(CC(N)=O)C(=O)NC2C(=O)NC3C(=O)NC(C(=O)N[C@H](C(=O)O)c4cc(O)cc(O)c4-c4cc3ccc4O)C(O)c3ccc(c(Cl)c3)Oc3cc2cc(c3OC2OC(CO)C(O)C(O)C2OC2CC(C)(NCCNC(=O)c3ccc(O)c(O)c3Cl)C(O)C(C)O2)Oc2ccc(cc2Cl)C1O (stereo partly shown) [Compound 28],> 64,> 64,> 64,> 64,> 64,32,> 64,4
CC(C)C[C@H](C(=O)N[C@H]1C(=O)N[C@@H](CC(N)=O)C(=O)N[C@H]2C(=O)N[C@H]3C(=O)N[C@H](C(=O)N[C@H](C(=O)O)c4cc(O)cc(O)c4-c4cc3ccc4O)[C@H](O)c3ccc(c(Cl)c3)Oc3cc2cc(c3O[C@@H]2O[C@H](CO)C(O)C(O)[C@H]2O[C@H]2CC(C)(N)[C@H](O)[C@H](C)O2)Oc2ccc(cc2Cl)[C@H]1O)N(C)CCNC(=O)c1ccc(O)c(O)c1Cl (stereo partly shown) [Compound 30],64,> 64,> 64,> 64,> 64,32,> 64,4
CNC(CC(C)C)C(=O)NC1C(=O)NC(CC(N)=O)C(=O)NC2C(=O)NC3C(=O)NC(C(=O)N[C@H](C(=O)O)c4cc(O)cc(O)c4-c4cc3ccc4O)C(O)c3ccc(c(Cl)c3)Oc3cc2cc(c3OC2OC(CO)C(O)C(O)C2OC2CC(C)(NCCCc3cn(CCCNC(=O)c4ccc(O)c(O)c4Cl)nn3)C(O)C(C)O2)Oc2ccc(cc2Cl)C1O (stereo partly shown) [Compound 31],> 64,32,> 64,> 64,> 64,64,> 64,8
CC(C)CC(C(=O)NC1C(=O)NC(CC(N)=O)C(=O)NC2C(=O)NC3C(=O)NC(C(=O)N[C@H](C(=O)O)c4cc(O)cc(O)c4-c4cc3ccc4O)C(O)c3ccc(c(Cl)c3)Oc3cc2cc(c3OC2OC(CO)C(O)C(O)C2OC2CC(C)(N)C(O)C(C)O2)Oc2ccc(cc2Cl)C1O)N(C)CCCc1cn(CCCNC(=O)c2ccc(O)c(O)c2Cl)nn1 (stereo partly shown) [Compound 32],> 64,> 64,> 64,> 64,> 64,32,> 64,32
